The nature of this data set: solvent given as SMILES.

Structures are written as SMILES. “And” between values parts separate entries of the source, which are not always exact repeats. Equal entries are not always repeated.

Regarding `O=C(O)c1cc2c(ccc3ccccc32)oc1=O`, the absorption maximum (in C1COCCO1) is 372 nm; the absorption maximum (in CC#N) was 376 nm; the absorption maximum (in CCCCO) was determined as 372 nm; the absorption maximum (in CCO) is on record as 363 nm; the absorption maximum (in CO) was 364 nm; the absorption maximum (in O) is listed as 376 nm.

`Cc1c(COC(=O)c2ccccc2Br)n2c(OCC(=O)c3ccccc3Br)c(C)c(=O)n2c1=O` showed an absorption maximum (in CCO) of 382 nm.

For `COc1ccc(-n2nc(C#N)c(N3CCOCC3)n2)cc1`, where the note is “in CC#N”, the absorption maximum stood at 324 nm.

The molecule `N#CCc1ccccc1-c1cc2ccccc2oc1=O` returned an absorption maximum (in ClC(Cl)Cl) of 318 nm.

As to `C[Si]1(C)O[Si](C)(C)c2cc3c(-c4ccccc4)c4cc(Cl)ccc4nc3cc21`, the absorption maximum (in ClCCl) turned out to be 376 nm.

In turn, `Cc1cc(C)c(B2c3cc(C)ccc3N3c4ccc(C)cc4B(c4c(C)cc(C)cc4C)c4cc(C)cc2c43)c(C)c1` gave an absorption maximum (in ClCCl) of 457 nm.

Molecule `O=C1CC(=O)Nc2cc(Cl)ccc2N1` returned an absorption maximum (in CS(C)=O) of 298 nm.

In the case of `CCN(CC)c1cccc(C=O)c1`, the absorption maximum was 380 nm (in CC#N); 382 nm (in CC(C)O); 367 nm (in CCCCCC); 376 nm (in CCOC(C)=O); 382 nm (in CO); 384 nm (in CS(C)=O). For the same molecule, the absorption maximum (in Cc1ccccc1) was 380 nm and the absorption maximum (in ClCCl) was determined as 382 nm.

`CC(C)n1c(=O)c2cc3ccc4cccc5ccc(c2c1=O)c3c45`: the absorption maximum (in ClC(Cl)Cl) is 427 nm.

Molecule `COC(=O)c1ccc(/C=C/C(F)(F)F)c(N)c1` showed an absorption maximum (in C1CCOC1) of 372 nm.

Turning to `CC(C)(C)c1ccc(C#Cc2cc3c(C#Cc4ccc(C(C)(C)C)cc4)c(C#Cc4ccc(C(C)(C)C)cc4)c4cc(C#Cc5ccc(C(C)(C)C)cc5)cc5c(C#Cc6ccc(C(C)(C)C)cc6)c(C#Cc6ccc(C(C)(C)C)cc6)c(c2)c3c45)cc1`, the absorption maximum (in ClCCl) is listed as 414 nm.

In the case of `CC(C)(C)c1ccc2oc3nc4oc5ccc(-n6c7ccccc7c(=O)c7ccccc76)cc5c4cc3c2c1`, the absorption maximum (in ClC(Cl)Cl) worked out at 396 nm.

As to `O=S(=O)([O-])CCCCN1C=C/C(=C/C=C/C=C/c2cc[n+](CCCCS(=O)(=O)[O-])c3ccccc23)c2ccccc21`, the absorption maximum (in CO) came to 815 nm.

Turning to `COc1c2ccccc2c(OC)c2c1c1ccc(C(F)(F)F)cc1n2C`, the absorption maximum is, setting by setting: (in C1CCCCC1) 416 nm; (in CC#N) 417 nm; (in CO) 416 nm; (in ClCCl) 419 nm.

For `c1ccc(-c2c3ccccc3c(-c3ccccc3)c3cc4ccccc4cc23)cc1`, the absorption maximum (in ClCCl) amounted to 493 nm.

As to `CCN(CC)c1ccc2cc(-c3cn4ccccc4n3)c(=O)oc2c1`, the absorption maximum is 408 nm (in C1CCOC1); 421 nm (in CC#N); 424 nm (in CCO); 407 nm (in CCOC(C)=O); 425 nm (in CN(C)C=O); 423 nm (in CO). The absorption maximum came out at 428 nm (in CS(C)=O), 407 nm (in Cc1ccccc1), 425 nm (in ClC(Cl)Cl) and 429 nm (in ClCCl).

In the case of `CC(=O)OC[C@@H]1O[C@H](N2C=CC3=Nc4nc(C)[n+](C)cc4CN3C2=O)[C@@H](O)[C@H]1O`, the absorption maximum is, setting by setting: (in CC#N) 386 nm; (in CCO) 388 nm; (in O) 382 nm.

On to `O=C([O-])c1ccc(C(=O)[O-])c2cc3ccccc3cc12`, for which the absorption maximum (in CN(C)C=O) is recorded as 396 nm.

Turning to `CC(C)(C)c1ccc2c(c1)c1cc(C(C)(C)C)cc3c1n2-c1cc(-c2cccc(F)c2)cc2c1B3c1cc(C(C)(C)C)cc3c4cc(C(C)(C)C)ccc4n-2c13`, the absorption maximum (in Cc1ccccc1) stood at 467.1 nm.

`c1ccc(-n2c(-c3ccc(-c4ccc5c(c4)C4(c6ccccc6-c6ccccc64)c4cc(-c6ccc(-c7nc8ccccc8n7-c7ccccc7)cc6)c6ccccc6c4-5)cc3)nc3ccccc32)cc1`: for the setting “in ClC(Cl)Cl”, the absorption maximum is 359 nm.

Molecule `CCOC(=O)c1c2c3c(ccc(C)c3c3cc4ccccc4cc13)N(C)C2=O` showed an absorption maximum (in CC#N) of 404 nm.

The molecule `Oc1cccc(O)c1-c1c2ccc(=[N+]3CCCCC3)cc-2oc2cc(N3CCCCC3)ccc12` displayed an absorption maximum (in CCO) of 557 nm.

Regarding `c1ccc(-c2nc(-c3ccccc3)nc(-c3ccc(-n4c5ccccc5c5ccccc54)cc3)n2)cc1`, where the note is “in Cc1ccccc1”, the absorption maximum stood at 364 nm.

On to `FC(F)(F)c1ccccc1B1c2ccccc2Nc2ccccc21`, for which the absorption maximum (in ClCCl) was determined as 386 nm.

`C[n+]1ccc(-c2ccc([O-])cc2)cc1`: the absorption maximum reads like this: (in CC#N) 472 nm; (in CC(C)=O) 479 nm; (in CC(C)O) 457 nm; (in CCC(C)O) 460 nm; (in CCCO) 441 nm; (in CO) 418 nm. Moreover, the absorption maximum came to 473 nm (in CS(C)=O) and 394 nm (in O).

Consider `F[B-]1(F)OC(c2ccccc2)=Cc2c3ccccc3cc[n+]21`, for which the absorption maximum (in ClC(Cl)Cl) was determined as 400 nm.

`CN(C)c1ccc(-c2nc3c(c4c2-c2ccc(C#N)cc2CC4)-c2ccc(C#N)cc2CC3)cc1`: the absorption maximum amounted to 344 nm (in C1CCOC1); 343 nm (in CC#N); 348 nm (in CCCCCC); 333 nm (in CCOC(C)=O); 332 nm (in CO); 344 nm (in CS(C)=O). Besides, the absorption maximum is 344 nm (in Cc1ccccc1) and 342 nm (in ClCCl).

Under “in ClCCl”, `CCCCCCCCCCn1c(-c2cc(-c3nc4ccc(C)cc4n3CCCCCCCCCC)cc(-c3nc4ccc(C)cc4n3CCCCCCCCCC)c2)nc2ccc(C)cc21` displayed an absorption maximum of 307.5 nm.

Consider `COc1cc(OC)c2cc(-c3ccccc3CC#N)c(=O)oc2c1`, for which the absorption maximum (in ClC(Cl)Cl) was 342 nm.

In the case of `C[n+]1ccn(CCCCc2ccc3c(c2)c2ccccc2n3-c2cc(C#N)c(C#N)cc2-n2c3ccccc3c3cc(CCCCn4cc[n+](C)c4)ccc32)c1`, under “in CC#N”, the absorption maximum amounted to 368.93 nm.

The molecule `c1ccc2cc3c(cc2c1)oc1c2oc4cc5ccccc5cc4c2c2ccccc2c31` returned an absorption maximum (in C1CCOC1) of 395 nm.

For the molecule `CN(C)c1ccc(C2=CC3=C(c4ccc(C=C(C#N)C#N)cc4)[C@H]4c5ccccc5[C@]3(S2)c2ccccc24)cc1`, the absorption maximum (in ClCCl) came to 543 nm.

In turn, `CCCCn1c(-c2ccc(-c3nnc(-c4cccs4)o3)cc2)nc(-c2ccccc2)c1-c1ccccc1` gave an absorption maximum (in ClCCl) of 340 nm.

For `N#Cc1ccc2[nH]ccc2c1`, the absorption maximum came to 274.85 nm (in C1COCCO1), 275 nm (in CC#N) and 275 nm (in O).

The molecule `CCCCC(CC)Cn1c2cc(C#N)ccc2c2ccc(C#Cc3ccc4ccc5c(C#Cc6ccc7c8ccc(C#N)cc8n(CC(CC)CCCC)c7c6)ccc6ccc3c4c65)cc21` (configuration not stated) displayed an absorption maximum (in ClCCl) of 385 nm.

As for `COc1ccc2c(c1)sc1[n+]2[B-](F)(F)OC(c2ccc(N(C)C)cc2)=N1`, the absorption maximum stood at 430 nm (in C1CCOC1); 426 nm (in CC#N); 431 nm (in CC(C)=O); 427 nm (in Cc1ccccc1); 430 nm (in ClCCl).

`CCN(CC)c1ccc2c(-c3ccc(S(=O)(=O)O)cc3S(=O)(=O)[O-])c3ccc(=[N+](CC)CC)cc-3oc2c1`: the absorption maximum reads like this: (in CC#N) 551 nm; (in CCO) 556 nm; (in CN(C)C=O) 554 nm; (in O) 554 nm.

Where the note is “in ClCCl”, `O=C(NCc1ccccc1)c1sc(-c2ccc(-c3cc(C4CC4)c(C(=O)NCc4ccccc4)s3)s2)cc1C1CC1` registered an absorption maximum of 393 nm.

For `CC(C)=C(C)C`, the absorption maximum (in CCCCCCC) is given as 196 nm.

Under “in Cc1ccccc1”, `N#Cc1cc(-n2c3ccccc3c3ccccc32)nc(-n2c3ccccc3c3ccccc32)n1` returned an absorption maximum of 342 nm.

On to `CN(C)c1ccc(/C=C/c2cc[n+](C)c3ccccc23)cc1`, for which the absorption maximum is, setting by setting: (in CC(C)=O) 540 nm; (in ClCCl) 581 nm; (in O) 510 nm.

As to `COc1ccc(-n2nc(C#N)c(N3CCC(N4CCCCC4)CC3)n2)cc1`, the absorption maximum (in CC#N) worked out at 325 nm.

Where the note is “in ClCCl”, `COc1c(C(C)=O)c(=O)oc2cc(N(C)C)ccc12` registered an absorption maximum of 373 nm.

Where the note is “in ClC(Cl)Cl”, `Cc1cc(C)c(C2=C3C=CC(c4csc5ccccc45)=[N+]3[B-](F)(F)n3c2ccc3-c2csc3ccccc23)c(C)c1` displayed an absorption maximum of 581 nm.

Take `C(=C\c1cc(/C=C/c2ccc(N(c3ccccc3)c3ccccc3)cc2)ncn1)/c1ccc(N(c2ccccc2)c2ccccc2)cc1`: the absorption maximum (in ClCCl) worked out at 427 nm.

For the molecule `CC1=[N+]2C(=C(c3ccc(N4CCOCC4)cc3)c3ccc(C)n3[B-]2(F)F)C=C1`, the absorption maximum reads like this: (in C1CCCCC1) 509 nm; (in C1CCOC1) 507 nm; (in CC#N) 504 nm and 505 nm; (in CC(=O)C(C)(C)C) 506 nm; (in CC(C)=O) 505 nm; (in CCCCCC) 508 nm. The absorption maximum stood at 506 nm (in CCOC(C)=O), 505 nm (in CO), 511 nm (in Cc1ccccc1) and 511 nm (in ClC(Cl)Cl).

As for `C1=C(c2ccc(-c3cccs3)s2)CCC1`, the absorption maximum by setting is: (in C1CCOC1) 345 nm; (in CC#N) 342 nm; (in CCCCCC) 341 nm; (in CCO) 341 nm; (in OCCOCCO) 347 nm; (in c1ccncc1) 348 nm.

For the molecule `CCCC[Si](C)(C)c1cccc2ccccc12`, the absorption maximum (in C1CCCCC1) amounted to 294 nm.

As for `COc1c2ccccc2c(OC)c2c1c1ccc(C)cc1n2C`, the absorption maximum runs as follows: (in C1CCCCC1) 402 nm; (in CC#N) 404 nm; (in CO) 401 nm; (in ClCCl) 405 nm.

The values are drawn from the Deep4Chem optical property database.
